Experimental data: PubChem BioAssay AID330 (DTP/NCI, 2004)
Values joined by “and” are separate entries in the source; they are usually repeats but may differ in a detail not shown here. Equal entries are not always repeated. Toxic doses and inconclusive results are not listed.

Test system: P388 leukemia ip, CD2F1 mice, survival T/C
Assay: NCI In Vivo Anticancer Drug Screen. Data for tumor model P388 Leukemia (intraperitoneal) in CD2F1 (CDF1) mice
Conditions: endpoint: median survival time, higher = longer survival
In short: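 Mice carrying the transplanted tumor received test compound or vehicle. Survival was recorded in each group, and the value is the treated-group measurement divided by that of the vehicle-treated control group.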

[1] = dose: 6.25 mg/kg/injection, schedule: Q01DX009 (ip), vehicle: saline with Tween-80
[2] = dose: 12.5 mg/kg/injection, schedule: Q01DX009 (ip), vehicle: saline with Tween-80
[3] = dose: 25.0 mg/kg/injection, schedule: Q01DX009 (ip), vehicle: saline with Tween-80
[4] = dose: 50.0 mg/kg/injection, schedule: Q01DX009 (ip), vehicle: Klucel (hydroxypropylcellulose) (HPC)
[5] = dose: 100.0 mg/kg/injection, schedule: Q01DX009 (ip), vehicle: Klucel (hydroxypropylcellulose) (HPC)
[6] = dose: 200.0 mg/kg/injection, schedule: Q01DX009 (ip), vehicle: Klucel (hydroxypropylcellulose) (HPC)
[7] = dose: 50.0 mg/kg/injection, schedule: Q01DX009 (ip), vehicle: saline with Tween-80
[8] = dose: 100.0 mg/kg/injection, schedule: Q01DX009 (ip), vehicle: saline with Tween-80
[9] = dose: 60.0 mg/kg/injection, schedule: Q01DX005 (ip), vehicle: saline with Tween-80
[10] = dose: 120.0 mg/kg/injection, schedule: Q01DX005 (ip), vehicle: saline with Tween-80
[11] = dose: 100.0 mg/kg/injection, schedule: Q01DX005 (ip), vehicle: saline with Tween-80
[12] = dose: 50.0 mg/kg/injection, schedule: Q01DX005 (ip), vehicle: saline with Tween-80

## C[n+]1c2ccccc2cc2ccccc21
dose: 25.0 mg/kg/injection, schedule: Q04DX003 (ip), vehicle: saline with Tween-80
  T/C: 86 % of control

## COCC(=O)c1ccc(C#N)cc1
dose: 100.0 mg/kg/injection, schedule: Q04DX003 (ip), vehicle: saline
  T/C: 100 % of control
dose: 200.0 mg/kg/injection, schedule: Q04DX003 (ip), vehicle: saline
  T/C: 100 % of control
dose: 400.0 mg/kg/injection, schedule: Q04DX003 (ip), vehicle: saline
  T/C: 100 % of control

## CCCCCC(=O)/C=C/C1=C(N2CCCC2)CN(C(=O)OCC)C1
dose: 60.0 mg/kg/injection, schedule: Q01DX005 (ip), vehicle: Klucel (hydroxypropylcellulose) (HPC)
  T/C: 86 % of control
dose: 120.0 mg/kg/injection, schedule: Q01DX005 (ip), vehicle: Klucel (hydroxypropylcellulose) (HPC)
  T/C: 89 % of control
dose: 240.0 mg/kg/injection, schedule: Q01DX005 (ip), vehicle: Klucel (hydroxypropylcellulose) (HPC)
  T/C: 91 % of control

## CCCCNC(=O)ON1C(=O)c2ccccc2C1=O
dose: 1.56 mg/kg/injection, schedule: Q01DX009 (ip), vehicle: saline with Tween-80
  T/C: 105 % of control
dose: 3.12 mg/kg/injection, schedule: Q01DX009 (ip), vehicle: saline with Tween-80
  T/C: 105 % of control
[1]
  T/C: 102 % of control and 117 % of control
[2]
  T/C: 110 % of control and 113 % of control
[3]
  T/C: 119 % of control

## CC(C)c1ccccc1S(=O)c1ccccc1C(C)(C)O (stereo not given)
[4]
  T/C: 98 % of control
[5]
  T/C: 102 % of control
[6]
  T/C: 95 % of control

## CC[C@H]1OC(=O)[C@H](C)[C@@H](OC2CC(C)(OC)C(O)C(C)O2)[C@H](C)[C@@H](OC2OC(C)CC(N(C)C)C2OC(=O)CCC2CCCC2)[C@](C)(O)C[C@@H](C)C(=O)[C@H](C)[C@@H](O)[C@]1(C)O (stereo not given in full)
dose: 50.0 mg/kg/injection, schedule: Q01DX005 (ip), vehicle: Klucel (hydroxypropylcellulose) (HPC)
  T/C: 96 % of control
dose: 100.0 mg/kg/injection, schedule: Q01DX005 (ip), vehicle: Klucel (hydroxypropylcellulose) (HPC)
  T/C: 100 % of control
dose: 200.0 mg/kg/injection, schedule: Q01DX005 (ip), vehicle: Klucel (hydroxypropylcellulose) (HPC)
  T/C: 93 % of control

## CS(=O)(=O)OCC(O)C(O)CI (stereo not given)
dose: 25.0 mg/kg/injection, schedule: Q01DX005 (ip), vehicle: saline
  T/C: 109 % of control
dose: 50.0 mg/kg/injection, schedule: Q01DX005 (ip), vehicle: saline
  T/C: 104 % of control
dose: 100.0 mg/kg/injection, schedule: Q01DX005 (ip), vehicle: saline
  T/C: 111 % of control

## C/C(=N\O)C(C)(O)C(C)(C)C (stereo not given)
[3]
  T/C: 103 % of control
[7]
  T/C: 86 % of control
[8]
  T/C: 93 % of control

## Cc1ccc(OP(=O)(Oc2ccc(C)cc2)Oc2ccc(C)cc2)cc1.Cc1ccc(OP(=O)(Oc2ccc(C)cc2)Oc2ccc(C)cc2)cc1.[Cl][Co][Cl]
dose: 100.0 mg/kg/injection, schedule: Q01DX001 (ip), vehicle: Klucel (hydroxypropylcellulose) (HPC)
  T/C: 96 % of control
dose: 200.0 mg/kg/injection, schedule: Q01DX001 (ip), vehicle: Klucel (hydroxypropylcellulose) (HPC)
  T/C: 100 % of control
dose: 400.0 mg/kg/injection, schedule: Q01DX001 (ip), vehicle: Klucel (hydroxypropylcellulose) (HPC)
  T/C: 92 % of control

## Clc1ccc(NCNC2Nc3ccccc3N2)cc1Cl
[9]
  T/C: 94 % of control
[10]
  T/C: 93 % of control

## CC(C)(C)N1C(=O)[N+](C)(CCCCCC[N+]2(C)N=C([O-])N(C(C)(C)C)C2=O)N=C1[O-] (stereo not given)
dose: 100.0 mg/kg/injection, schedule: Q04DX003 (ip), vehicle: saline with Tween-80
  T/C: 95 % of control
dose: 200.0 mg/kg/injection, schedule: Q04DX003 (ip), vehicle: saline with Tween-80
  T/C: 100 % of control
dose: 400.0 mg/kg/injection, schedule: Q04DX003 (ip), vehicle: saline with Tween-80
  T/C: 108 % of control

## CC(=O)OCC1OC(n2ccc(N)nc2=O)C(OC(C)=O)C1OC(C)=O (stereo not given)
dose: 100.0 mg/kg/injection, schedule: Q01DX009 (ip), vehicle: saline
  T/C: 162 % of control
dose: 200.0 mg/kg/injection, schedule: Q01DX009 (ip), vehicle: saline
  T/C: 178 % of control

## NC1=NC(c2c3ccccc3cc3ccccc23)N=C(Nc2cccc(Cl)c2)N1 (stereo not given)
[1]
  T/C: 107 % of control
[2]
  T/C: 114 % of control
[7]
  T/C: 95 % of control

## COc1ccc(CC(C(=O)NN)S(=O)(=O)NC(C)(C)C)cc1OC (stereo not given)
dose: 100.0 mg/kg/injection, schedule: Q04DX003 (ip), vehicle: Klucel (hydroxypropylcellulose) (HPC)
  T/C: 98 % of control
dose: 200.0 mg/kg/injection, schedule: Q04DX003 (ip), vehicle: Klucel (hydroxypropylcellulose) (HPC)
  T/C: 98 % of control
dose: 400.0 mg/kg/injection, schedule: Q04DX003 (ip), vehicle: Klucel (hydroxypropylcellulose) (HPC)
  T/C: 95 % of control

## O=C1C=CC(=O)C(c2ccc(Cl)cc2)=C1
[2]
  T/C: 98 % of control
[3]
  T/C: 90 % of control
[8]
  T/C: 90 % of control

## CCOC(=O)CN=Cc1ccccc1
[9]
  T/C: 107 % of control
[10]
  T/C: 108 % of control
dose: 240.0 mg/kg/injection, schedule: Q01DX005 (ip), vehicle: saline with Tween-80
  T/C: 107 % of control

## C(=N[C@H]1CCCC[C@H]1N=Cc1ccc[nH]1)c1ccc[nH]1
dose: 6.25 mg/kg/injection, schedule: Q01DX005 (ip), vehicle: saline with Tween-80
  T/C: 99 % of control
dose: 12.5 mg/kg/injection, schedule: Q01DX005 (ip), vehicle: saline with Tween-80
  T/C: 101 % of control
dose: 25.0 mg/kg/injection, schedule: Q01DX005 (ip), vehicle: saline with Tween-80
  T/C: 100 % of control
[11]
  T/C: 86 % of control

## COc1cccc2c1C(=O)c1c(O)c3c(c(O)c1C2=O)CC(O)(c1csc(-c2ccncc2)n1)CC3O (stereo not given)
dose: 1.56 mg/kg/injection, schedule: Q01DX009 (ip), vehicle: other
  T/C: 106 % of control
dose: 3.13 mg/kg/injection, schedule: Q01DX009 (ip), vehicle: other
  T/C: 105 % of control
dose: 6.25 mg/kg/injection, schedule: Q01DX009 (ip), vehicle: other
  T/C: 104 % of control
dose: 12.5 mg/kg/injection, schedule: Q01DX009 (ip), vehicle: other
  T/C: 106 % of control
dose: 25.0 mg/kg/injection, schedule: Q01DX009 (ip), vehicle: other
  T/C: 113 % of control and 116 % of control
dose: 50.0 mg/kg/injection, schedule: Q01DX009 (ip), vehicle: other
  T/C: 107 % of control
dose: 100.0 mg/kg/injection, schedule: Q01DX009 (ip), vehicle: other
  T/C: 102 % of control

## COc1ccccc1N=C(C1=C(O)c2ccccc2C1=O)c1ccccc1
dose: 100.0 mg/kg/injection, schedule: Q04DX002 (ip), vehicle: saline with Tween-80
  T/C: 100 % of control
dose: 200.0 mg/kg/injection, schedule: Q04DX002 (ip), vehicle: saline with Tween-80
  T/C: 102 % of control
dose: 400.0 mg/kg/injection, schedule: Q04DX002 (ip), vehicle: saline with Tween-80
  T/C: 94 % of control

## CC(C)(Oc1ccc(C(=O)c2ccc(Cl)cc2)cc1)C(=O)O
[7]
  T/C: 93 % of control
[8]
  T/C: 102 % of control
dose: 200.0 mg/kg/injection, schedule: Q01DX009 (ip), vehicle: saline with Tween-80
  T/C: 111 % of control

## Cc1cc(OCc2nnc3n2S(=O)(=O)c2ccccc2N3C)ccc1Cl
[9]
  T/C: 87 % of control
[10]
  T/C: 90 % of control

## O=C1C2CSCN2C(=O)CN1CCN1CCOCC1 (stereo not given)
dose: 60.0 mg/kg/injection, schedule: Q01DX005 (ip), vehicle: saline
  T/C: 100 % of control
dose: 120.0 mg/kg/injection, schedule: Q01DX005 (ip), vehicle: saline
  T/C: 100 % of control
dose: 240.0 mg/kg/injection, schedule: Q01DX005 (ip), vehicle: saline
  T/C: 100 % of control

## O=S(O)OC1(O)CCCCC1
dose: 100.0 mg/kg/injection, schedule: Q04DX002 (ip), vehicle: saline
  T/C: 110 % of control
dose: 200.0 mg/kg/injection, schedule: Q04DX002 (ip), vehicle: saline
  T/C: 95 % of control
dose: 400.0 mg/kg/injection, schedule: Q04DX002 (ip), vehicle: saline
  T/C: 100 % of control

## O=c1[nH]c2ccccc2nc1N=Nc1ccccc1
[12]
  T/C: 96 % of control
[11]
  T/C: 96 % of control

## CN1C(=O)C(n2[nH]c(=O)n(-c3ccccc3)c2=O)C(=O)N(C)C1=O
[4]
  T/C: 99 % of control
[5]
  T/C: 89 % of control
[6]
  T/C: 103 % of control

## Cc1cc(C)nc(NS(=O)(=O)c2ccc(NC(=S)Nc3ccccc3)cc2)n1
[12]
  T/C: 96 % of control
[11]
  T/C: 90 % of control
dose: 200.0 mg/kg/injection, schedule: Q01DX005 (ip), vehicle: saline with Tween-80
  T/C: 91 % of control

## COC(=O)NC(=Nc1cccc(C(=O)c2ccc3nc(NC(=O)OC)[nH]c3c2)c1)NC(=O)OC
[10]
  T/C: 90 % of control
